# From patent US20250170141A1, “MRGPRX2 MODULATORS AND RELATED METHODS OF TREATMENT” (Escient Pharmaceuticals, Inc., priority 2023, published 2025)
# Biological target: T1, human MRGPRX2 (Homo sapiens, UniProt Q96LB1)
# T1 construct: expressed in transfected cells; host or cells: CHO cells, stably transfected (G418 and Hygromycin B selection)
# T1 sequence (Q96LB1 1-330): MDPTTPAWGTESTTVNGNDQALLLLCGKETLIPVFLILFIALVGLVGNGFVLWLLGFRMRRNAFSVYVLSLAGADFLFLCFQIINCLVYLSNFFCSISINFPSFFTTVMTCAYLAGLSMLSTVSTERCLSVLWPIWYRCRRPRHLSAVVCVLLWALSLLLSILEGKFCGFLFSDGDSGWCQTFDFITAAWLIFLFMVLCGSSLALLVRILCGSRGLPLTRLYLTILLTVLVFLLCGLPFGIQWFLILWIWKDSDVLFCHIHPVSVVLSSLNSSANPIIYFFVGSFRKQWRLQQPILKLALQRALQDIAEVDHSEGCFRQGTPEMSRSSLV
# Assay: MRGPRX2 activity: IP-One Gq HTRF assay in CHO cells, antagonism versus 0.3 uM Cortistatin-14
# Format: cell-based
# Conditions: versus 0.3 uM Cortistatin-14 agonist, CHO cells expressing human MRGPRX2, read-out: MRGPRX2 Antagonist Activity
# How it was run: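 Antagonist IC50 was derived from the HTRF IP-1 signal after co-addition of compounds (10 points, top 30 uM, 3-fold steps) and 0.3 μM Cortistatin-14 agonist to human MRGPRX2-expressing CHO cells. Assay buffer contained 50 mM LiCl, pH 8; plates sat 1 h at 37 °C, then 1 h at room temperature.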
row,SMILES,IC50 [nM]
1,"O=S1(=O)N=C(NCc2cccnc2F)Nc2c(Cc3ccccc3Cl)cccc21 [Compound 12-28, 5-(2-chlorobenzyl)-3-(((2-fluoropyridin-3-yl)methyl)amino)-4H-benzo[e][1,2,4]thiadiazine 1,1-dioxide]",< 100
2,"O=S1(=O)N=C(NCc2cccc3ccccc23)Nc2c1cc(F)c(F)c2Cc1ccccc1Cl [Compound 4-20, 5-(2-chlorobenzyl)-6,7-difluoro-3-((naphthalen-1-ylmethyl)amino)-4H-benzo[e][1,2,4]thiadiazine 1,1-dioxide]",501 to 1000
3,"COc1ccc(Oc2c(F)ccc3c2NC(NCc2ncccc2F)=NS3(=O)=O)cc1 [Compound 2-11, 6-fluoro-3-(((3-fluoropyridin-2-yl)methyl)amino)-5-(4-methoxyphenoxy)-4H-benzo[e][1,2,4]thiadiazine 1,1-dioxide]",1000 to 2500
4,"O=S1(=O)N=C(NCc2ncccc2F)Nc2c1ccc(F)c2C#Cc1ccccc1 [Compound 19-1, 6-fluoro-3-(((3-fluoropyridin-2-yl)methyl)amino)-5-(phenylethynyl)-4H-benzo[e][1,2,4]thiadiazine 1,1-dioxide]",100 to 500
5,"CC(c1ccccc1F)c1c(F)ccc2c1NC(NCc1cccc(F)c1)=NS2(=O)=O (centres unmarked) [Compound 9-4, 6-fluoro-3-((3-fluorobenzyl)amino)-5-(1-(2-fluorophenyl)ethyl)-4H-benzo[e][1,2,4]thiadiazine 1,1-dioxide]",< 100
6,"C=C(c1ccccc1F)c1c(F)ccc2c1NC(NCc1ncccc1F)=NS2(=O)=O [Compound 13-3, 6-fluoro-5-(1-(2-fluorophenyl)vinyl)-3-(((3-fluoropyridin-2-yl)methyl)amino)-4H-benzo[e][1,2,4]thiadiazine 1,1-dioxide]",< 100
7,"O=S1(=O)N=C(NCc2ncccc2F)Nc2c1ccc(Cl)c2Oc1cccc(F)c1Cl [Compound 1-51, 6-chloro-5-(2-chloro-3-fluorophenoxy)-3-(((3-fluoropyridin-2-yl)methyl)amino)-4H-benzo[e][1,2,4]thiadiazine 1,1-dioxide]",< 100
8,"O=C(c1ccccc1Cl)c1cccc2c1NC(NCc1ncccc1F)=NS2(=O)=O [Compound 16-5, (2-chlorophenyl)(3-(((3-fluoropyridin-2-yl)methyl)amino)-1,1-dioxido-4H-benzo[e][1,2,4]thiadiazin-5-yl)methanone]",100 to 500
9,"CCC(c1ccccc1F)c1cccc2c1NC(NCc1ncccc1F)=NS2(=O)=O (centres unmarked) [Compound 21-1, 5-(1-(2-fluorophenyl)propyl)-3-(((3-fluoropyridin-2-yl)methyl)amino)-4H-benzo[e][1,2,4]thiadiazine 1,1-dioxide]",< 100
10,"O=S1(=O)N=C(NCc2cnccc2Cl)Nc2c(Cc3ccccc3Cl)cccc21 [Compound 12-32, 5-(2-chlorobenzyl)-3-(((4-chloropyridin-3-yl)methyl)amino)-4H-benzo[e][1,2,4]thiadiazine 1,1-dioxide]",< 100
11,"O=S1(=O)N=C(NCc2ccccc2F)Nc2c(C3(c4ccccc4)CC3)cccc21 [Compound 6-19, 3-((2-fluorobenzyl)amino)-5-(1-phenylcyclopropyl)-4H-benzo[e][1,2,4]thiadiazine 1,1-dioxide]",< 100
12,"O=S1(=O)N=C(NCc2ccccc2Cl)Nc2c(Cc3ccccc3Cl)cccc21 [Compound 12-1, 5-(2-chlorobenzyl)-3-((2-chlorobenzyl)amino)-4H-benzo[e][1,2,4]thiadiazine 1,1-dioxide]",< 100
13,"O=S1(=O)N=C(NCc2cccc(F)n2)Nc2c1cc(F)c(F)c2Cc1ccccc1Cl [Compound 4-11, 5-(2-chlorobenzyl)-6,7-difluoro-3-(((6-fluoropyridin-2-yl)methyl)amino)-4H-benzo[e][1,2,4]thiadiazine 1,1-dioxide]",100 to 500
14,"Cc1ccc(NC2=NS(=O)(=O)c3ccc(F)c(Oc4ccccc4Cl)c3N2)cc1 [Compound 1-13, 5-(2-chlorophenoxy)-6-fluoro-3-(p-tolylamino)-4H-benzo[e][1,2,4]thiadiazine 1,1-dioxide]",> 2500
15,"O=S1(=O)N=C(NCc2cccc(F)c2)Nc2c(Cc3ccccc3Cl)cccc21 [Compound 12-22, 5-(2-chlorobenzyl)-3-((3-fluorobenzyl)amino)-4H-benzo[e][1,2,4]thiadiazine 1,1-dioxide]",< 100
16,"O=S1(=O)N=C(NCc2ncc(F)cc2F)Nc2c(Cc3ccccc3Cl)cccc21 [Compound 12-10, 5-(2-chlorobenzyl)-3-(((3,5-difluoropyridin-2-yl)methyl)amino)-4H-benzo[e][1,2,4]thiadiazine 1,1-dioxide]",< 100
17,"COc1ccccc1CNC1=NS(=O)(=O)c2ccc(F)c(C(C)c3ccccc3F)c2N1 (centres unmarked) [Compound 7-9, 6-fluoro-5-(1-(2-fluorophenyl)ethyl)-3-((2-methoxybenzyl)amino)-4H-benzo[e][1,2,4]thiadiazine 1,1-dioxide]",< 100
18,"O=S1(=O)N=C(NCc2ccccc2)Nc2c1ccc(F)c2Oc1ccccc1Cl [Compound 1-49, 3-(benzylamino)-5-(2-chlorophenoxy)-6-fluoro-4H-benzo[e][1,2,4]thiadiazine 1,1-dioxide]",< 100
19,"CC(c1ccccc1)c1c(F)ccc2c1NC(NCc1cccc(F)c1)=NS2(=O)=O (centres unmarked) [Compound 22-1, 6-fluoro-3-((3-fluorobenzyl)amino)-5-(1-phenylethyl)-4H-benzo[e][1,2,4]thiadiazine 1,1-dioxide]",< 100
20,"O=S1(=O)N=C(NCc2ncccc2F)Nc2c(/C=C/c3ccccc3F)cccc21 [Compound 14-3, (E)-3-(((3-fluoropyridin-2-yl)methyl)amino)-5-(2-fluorostyryl)-4H-benzo[e][1,2,4]thiadiazine 1,1-dioxide]",< 100
21,"Cc1ccc(CNC2=NS(=O)(=O)c3cccc(Cc4ccccc4Cl)c3N2)c(F)c1 [Compound 12-6, 5-(2-chlorobenzyl)-3-((2-fluoro-4-methylbenzyl)amino)-4H-benzo[e][1,2,4]thiadiazine 1,1-dioxide]",< 100

# Next, values leading:
row,IC50 [nM],SMILES
1,< 100,"O=S1(=O)N=C(NCc2ncccc2F)Nc2c1ccc(F)c2Oc1ccc(F)cc1F [Compound 1-39, 5-(2,4-difluorophenoxy)-6-fluoro-3-(((3-fluoropyridin-2-yl)methyl)amino)-4H-benzo[e][1,2,4]thiadiazine 1,1-dioxide]"
2,100 to 500,"COc1cccnc1CNC1=NS(=O)(=O)c2ccc(F)c(Oc3ccccc3Cl)c2N1 [Compound 1-30, 5-(2-chlorophenoxy)-6-fluoro-3-(((3-methoxypyridin-2-yl)methyl)amino)-4H-benzo[e][1,2,4]thiadiazine 1,1-dioxide]"
3,< 100,"O=S1(=O)N=C(NCc2ncc(F)cc2F)Nc2c1ccc(F)c2Oc1ccccc1Cl [Compound 1-14, 5-(2-chlorophenoxy)-3-(((3,5-difluoropyridin-2-yl)methyl)amino)-6-fluoro-4H-benzo[e][1,2,4]thiadiazine 1,1-dioxide]"
4,1000 to 2500,"O=S1(=O)N=C(NCc2ncccc2C(F)(F)F)Nc2c1ccc(F)c2Oc1ccccc1Cl [Compound 1-26, 5-(2-chlorophenoxy)-6-fluoro-3-(((3-(trifluoromethyl)pyridin-2-yl)methyl)amino)-4H-benzo[e][1,2,4]thiadiazine 1,1-dioxide]"
5,< 100,"O=S1(=O)N=C(NCc2cccc(F)c2)Nc2c1ccc(F)c2Oc1ccccc1Cl [Compound 1-11, 5-(2-chlorophenoxy)-6-fluoro-3-((3-fluorobenzyl)amino)-4H-benzo[e][1,2,4]thiadiazine 1,1-dioxide]"
6,< 100,"O=S1(=O)N=C(NCc2ncccc2F)Nc2c1ccc(F)c2Oc1cc(Cl)ccc1Cl [Compound 1-38, 5-(2,5-dichlorophenoxy)-6-fluoro-3-(((3-fluoropyridin-2-yl)methyl)amino)-4H-benzo[e][1,2,4]thiadiazine 1,1-dioxide]"
7,1000 to 2500,"COc1ccc(F)c(CNC2=NS(=O)(=O)c3ccc(F)c(Oc4ccccc4Cl)c3N2)c1 [Compound 1-20, 5-(2-chlorophenoxy)-6-fluoro-3-((2-fluoro-5-methoxybenzyl)amino)-4H-benzo[e][1,2,4]thiadiazine 1,1-dioxide]"
8,< 100,"O=S1(=O)N=C(NCc2ccccc2F)Nc2c1ccc(F)c2Oc1ccccc1Cl [Compound 1-2, 5-(2-chlorophenoxy)-6-fluoro-3-((2-fluorobenzyl)amino)-4H-benzo[e][1,2,4]thiadiazine 1,1-dioxide]"
9,100 to 500,"O=S1(=O)N=C(NCc2ncccc2F)Nc2c(Oc3ccccc3Cl)c(F)cc(F)c21 [Compound 1-1, 5-(2-chlorophenoxy)-6,8-difluoro-3-(((3-fluoropyridin-2-yl)methyl)amino)-4H-benzo[e][1,2,4]thiadiazine 1,1-dioxide]"
10,100 to 500,"O=S1(=O)N=C(NCc2cccnc2F)Nc2c1ccc(F)c2Oc1ccccc1Cl [Compound 2-5, 5-(2-chlorophenoxy)-6-fluoro-3-(((2-fluoropyridin-3-yl)methyl)amino)-4H-benzo[e][1,2,4]thiadiazine 1,1-dioxide]"
11,501 to 1000,"COc1ccc(F)c(CNC2=NS(=O)(=O)c3ccc(F)c(Oc4ccccc4Cl)c3N2)n1 [Compound 1-21, 5-(2-chlorophenoxy)-6-fluoro-3-(((3-fluoro-6-methoxypyridin-2-yl)methyl)amino)-4H-benzo[e][1,2,4]thiadiazine 1,1-dioxide]"
